Test results taken from patent US6218167A, “Stable biocatalysts for ester hydrolysis” (ThermoGen, Inc., priority 1998, dated 2001).

Columns and labels:
[1] = molecular target: T1, Thermus sp. T351 esterase E101, SEQ ID NO.:8 (Thermus filiformis, UniProt A0A0A2WSC9); assay: biochemical; format: biochemical
T1 construct: T351; native about 135 kD
Excerpt: The specific activity of the enzyme is ten fold greater than observed for E100 with 4-methyl-umbelliferyl butyrate (MUB) as the substrate. E101 is inhibited by PMSF but is insensitive to metal ions or metal ion chelators. […] Table 5 outlines the inhibitory effect of various substances on E101 activity.
Reaction conditions are those described in the general experimental above

[2] = system: Thermus sp. T351 esterase E100; assay: Inhibition by reaction components of p-nitrophenylproprionate hydrolysis by E100; format: biochemical; conditions: no concentration stated
Procedure: Esterase activity is measured by monitoring the hydrolysis of p-nitrophenylproprionate (pNP), or in some cases MUB. Each substrate is dissolved in acetonitrile and added to the reaction mixture (100 μM final concentration) which contain 50 mM Tris HCl pH 8.5 adjusted for temperature dependent pH variation. Reactions are thermally equilibrated at 37° C. for 5 minutes prior to initiation of the reaction by addition of 10 μL of enzyme sample, while control reactions substituted equivalent amounts of BSA. The reaction is monitored spectrophotometrically at 405 nm ε=17 mM^-1 cm^-1 for pNP and 360 nm ε=7.9 mM^-1 cm^-1 for MUB.
The rates of enzyme catalyzed hydrolysis are corrected for the spontaneous hydrolysis of the substrate. Protein concentrations are determined by either the absorbance at 280 nm or by Lowery assay. Crude activity is determined by a calorimetric assay based on the hydrolysis of 5-bromo-4-chloro-3-indoyl esters suspended in a 0.7% agar matrix on microtiter plates. A 0.1 mg/ml solution of the indolyl derivative is dissolved in a minimal volume of acetonitrile and added to a warm solution of 0.7% agar containing 0.1M phosphate buffer pH 7.5. 10 μL of this solution is distributed to microtiter plates which, when cooled, could be used with as much as 100 μL of enzyme sample and incubated at temperatures from ambient to >65° C. […]

T1 sequence (A0A0A2WSC9 entry or part of it A175T/N178S/T194S/A197P/K279Q/P281S): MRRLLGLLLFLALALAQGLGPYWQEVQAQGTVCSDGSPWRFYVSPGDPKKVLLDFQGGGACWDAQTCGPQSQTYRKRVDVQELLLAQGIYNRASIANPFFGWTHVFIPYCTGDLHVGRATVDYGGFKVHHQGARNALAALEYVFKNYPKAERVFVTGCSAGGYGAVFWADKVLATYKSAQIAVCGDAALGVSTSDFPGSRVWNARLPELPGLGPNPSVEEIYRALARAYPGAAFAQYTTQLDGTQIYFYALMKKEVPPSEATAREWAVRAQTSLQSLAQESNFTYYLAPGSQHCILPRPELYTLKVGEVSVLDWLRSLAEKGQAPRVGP

Compound: OCCS [BME, β-mercaptoethanol]
- activity at 10000 µM ([1]; read-out: Relative Rate): 96%

Compound: OC(CS)C(O)CS (stereo not drawn) [DTT]
- activity at 1000 µM ([1]; read-out: Relative Rate): 98%

Compound: O=C(O)CN(CCN(CC(=O)O)CC(=O)O)CC(=O)O [EDTA]
- activity at 1000 µM ([1]; read-out: Relative Rate): 93%

Compound: O=S(=O)(F)Cc1ccccc1 [PMSF]
- Relative Rate ([1]; additive 0.1 mM, None = 100%, substrate p-nitrophenylproprionate): 0%
- Inhibition of E101 (in words) ([1]; no concentration stated): inhibited

Compound: Cc1ccc(S(=O)(=O)F)cc1 [tosyl fluoride]
- Inhibition of E100 (in words) [2]: effectively inhibited
